Molecular target: ATP-dependent translocase ABCB1 (Homo sapiens, UniProt P08183)
Test: TP_TRANSPORTER: transepithelial transport in MDR1-expressing LLC-PK1 cells
Assay type: functional, cell-based
Conditions: pig

Sequence of ATP-dependent translocase ABCB1 (P08183 whole entry): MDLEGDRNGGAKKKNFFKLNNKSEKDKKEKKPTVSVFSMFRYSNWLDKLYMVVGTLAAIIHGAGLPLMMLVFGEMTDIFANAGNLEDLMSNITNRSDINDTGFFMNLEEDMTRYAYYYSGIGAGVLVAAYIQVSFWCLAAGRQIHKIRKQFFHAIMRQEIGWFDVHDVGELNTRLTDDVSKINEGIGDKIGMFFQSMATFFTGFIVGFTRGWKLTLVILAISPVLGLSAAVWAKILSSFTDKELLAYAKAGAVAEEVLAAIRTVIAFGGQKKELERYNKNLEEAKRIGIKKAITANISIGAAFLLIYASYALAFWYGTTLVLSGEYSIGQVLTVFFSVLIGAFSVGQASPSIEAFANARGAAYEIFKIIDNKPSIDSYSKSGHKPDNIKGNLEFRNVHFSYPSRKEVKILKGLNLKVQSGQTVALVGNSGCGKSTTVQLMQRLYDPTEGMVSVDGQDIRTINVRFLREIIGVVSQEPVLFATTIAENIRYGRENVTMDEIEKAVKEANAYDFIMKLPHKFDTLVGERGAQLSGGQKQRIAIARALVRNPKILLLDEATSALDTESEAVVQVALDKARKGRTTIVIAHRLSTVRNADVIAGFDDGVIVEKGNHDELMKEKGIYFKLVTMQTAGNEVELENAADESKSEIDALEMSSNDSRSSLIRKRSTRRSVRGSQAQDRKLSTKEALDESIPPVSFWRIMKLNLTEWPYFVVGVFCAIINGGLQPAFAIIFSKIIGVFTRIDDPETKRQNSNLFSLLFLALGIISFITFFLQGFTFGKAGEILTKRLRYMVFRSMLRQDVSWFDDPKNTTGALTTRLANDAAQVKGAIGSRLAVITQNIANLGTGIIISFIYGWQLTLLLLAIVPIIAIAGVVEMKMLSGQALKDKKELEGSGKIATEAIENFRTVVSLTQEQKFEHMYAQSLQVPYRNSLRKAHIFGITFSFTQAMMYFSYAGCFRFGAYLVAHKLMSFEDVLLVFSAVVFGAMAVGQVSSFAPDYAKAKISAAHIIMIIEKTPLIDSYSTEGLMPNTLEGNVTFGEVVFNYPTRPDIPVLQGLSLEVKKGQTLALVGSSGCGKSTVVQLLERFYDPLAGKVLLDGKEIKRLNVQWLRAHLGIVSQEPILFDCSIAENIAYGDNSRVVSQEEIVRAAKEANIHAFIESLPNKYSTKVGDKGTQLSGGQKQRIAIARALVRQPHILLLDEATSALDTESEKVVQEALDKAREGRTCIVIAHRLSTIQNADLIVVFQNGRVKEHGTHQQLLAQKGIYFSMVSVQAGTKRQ

Structure (SMILES)	Activity
C[C@]12CCC(=O)C=C1[C@H](O)C[C@@H]1[C@@H]2[C@@H](O)C[C@@]2(C)[C@H]1CC[C@]2(O)C(=O)CO	substrate [+]
C[C@]12CCC(=O)C=C1[C@@H](O)C[C@@H]1[C@@H]2[C@@H](O)C[C@@]2(C)[C@H]1CC[C@]2(O)C(=O)CO	substrate [+]
C[C@H]1C[C@H]2[C@@H]3CCC4=CC(=O)C=C[C@]4(C)[C@@]3(F)[C@@H](O)C[C@]2(C)[C@@]1(O)C(=O)CO [BETAMETHASONE]	substrate [+]
C[C@]12CCC(=O)C=C1CC[C@@H]1[C@@H]2C(=O)C[C@@]2(C)[C@H]1CC[C@]2(O)C(=O)CO [CORTISONE]	substrate [+]
C[C@@H]1C[C@H]2[C@@H]3CCC4=CC(=O)C=C[C@]4(C)[C@@]3(F)[C@@H](O)C[C@]2(C)[C@@]1(O)C(=O)CO [DEXAMETHASONE]	substrate [+]
C[C@]12CCC(=O)C=C1CC[C@@H]1[C@@H]2[C@@H](O)C[C@@]2(C)[C@H]1CC[C@]2(O)C(=O)CO [HYDROCORTISONE]	substrate [+]
C[C@H]1C[C@@H]2[C@H]([C@@H](O)C[C@@]3(C)[C@H]2CC[C@]3(O)C(=O)CO)[C@@]2(C)C=CC(=O)C=C12 [METHYLPREDNISOLONE]	substrate [+]
C[C@]12C=CC(=O)C=C1CC[C@@H]1[C@@H]2[C@@H](O)C[C@@]2(C)[C@H]1CC[C@]2(O)C(=O)CO [PREDNISOLONE]	substrate [+]
C[C@]12C=CC(=O)C=C1CC[C@@H]1[C@@H]2C(=O)C[C@@]2(C)[C@H]1CC[C@]2(O)C(=O)CO [PREDNISONE]	substrate [+]

From ChEMBL document CHEMBL2074008, “Structural determinants of P-glycoprotein-mediated transport of glucocorticoids” (Pharm Res, 2003)
